Series [1] can be described thus: Lipophilicity, n-octanol/PBS (pH 7.4) distribution coefficient. The class given is physicochemical. In short, it runs like this:
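logD7.4 measured by shake-flask with ^177Lu-labelled peptide (approx. 1 MBq) in 1/1 n-octanol/PBS pH 7.4, vortexed 3 min at RT and centrifuged 5 min. Both phases counted by γ-counter; at least five repeats.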

A short description of series [2]: Biodistribution at 24 h p.i. in AR42J tumour-bearing CB17-SCID mice. The following applies: mouse, in vivo, 100 pmol, n = 4, mean ± SD. The class given is in vivo. The procedure: Figure 4 Biodistribution of the reference compound, [^177Lu]Lu-DOTA-PP-F11N (blue), the α-linked [^177Lu]Lu-(R)-DOTAGA-rhCCK-9 (red) and the γ-linked [^177Lu]Lu-(R)-DOTAGA-rhCCK-16 (green) in selected organs (%ID/g) at 24 h p.i. in AR42J tumour-bearing CB17-SCID mice (100 pmol each, n = 4). Data is expressed as mean ± SD.
All animal experiments were conducted in accordance with general animal welfare regulations in Germany (German animal protection act, in the edition of the announcement, dated 18 May 2006, as amended by Article 280 of 19 June 2020, approval no. ROB-55.2-1-2532.Vet_02-18-109 by the General Administration of Upper Bavaria) and the institutional guidelines for the care and use of animals. CB17-SCID mice of both genders and aged 2–12 months (Charles River Laboratories International Inc., Sulzfeld, Germany) were allowed to acclimate at the in-house animal facility for at least one week prior to tumour cell inoculation was performed. Tumour xenografts were generated using AR42J cells (5.0 × 10^6 cells per 200 µL) suspended in a 1/1 mixture (v/v) of RPMI 1640 medium and Cultrex® Basement Membrane Matrix Type 3 (Trevigen, Gaithersburg, MD, USA). This suspension was inoculated subcutaneously onto the right shoulder and animals were used when tumour volume was >100 mm^3 (1–2 week after inoculation). Exclusion criteria for animals from an experiment were either weight loss higher than 20%, a tumour size above 1500 mm^3, an ulceration of the tumour, respiratory distress or a change of behaviour. None of these criteria applied to any animal from the experiment. Neither randomisation nor blinding was applied in the allocation of the experiments. Health status is SPF according to FELASA.
For biodistribution studies, the ^177Lu-labelled compound (approx. 2–3 MBq, 100 pmol) was injected into a lateral tail vein (n = 4) of anesthetised (2% isoflurane) AR42J tumour-bearing CB-17-SCID mice. At 24 h post-injection (p.i.), the mice were euthanised. Thereafter, the pertinent organs were removed, weighed and measured using a γ-counter.

[3] abbreviates: 177Lu-labelled peptide, n-octanol/PBS pH 7.4, read-out: logD7.4.
Setting [4] is: AR42J tumour, read-out: Biodistribution, Tumour.
[5] abbreviates: read-out: Biodistribution, Adrenal.
[6] abbreviates: read-out: Biodistribution, Blood.
The mark [7] stands for this setting: read-out: Biodistribution, Bone.
[8] abbreviates: read-out: Biodistribution, Heart.
Where [9] appears, read: read-out: Biodistribution, Intestine.
Setting [10] is: read-out: Biodistribution, Kidney.
[11] abbreviates: read-out: Biodistribution, Liver.
The mark [12] stands for this setting: read-out: Biodistribution, Lung.
The mark [13] stands for this setting: read-out: Biodistribution, Muscle.
Setting [14] is: read-out: Biodistribution, Pancreas.
[15] abbreviates: read-out: Biodistribution, Spleen.
The mark [16] stands for this setting: read-out: Biodistribution, Stomach.

Structures are written as SMILES. Read-outs that look alike come from different tables or passages of the source. Non-standard residues stand in square brackets, D forms with d. Residues, ends and D or L forms follow the SMILES beside them. *: point of attachment. X1 = O=C(O)CN1CCN(CC(=O)O)CCN([C@H](CCC(=O)*)C(=O)O)CCN(CC(=O)O)CC1; Benzoyl(4-SiFtBu2) = CC(C)(C)[Si](F)(c1ccc(C(=O)*)cc1)C(C)(C)C; Nle = CCCC[C@H](N)C(=O)O; dDap = NC[C@@H](N)C(=O)O

Turning to `CCCC[C@H](NC(=O)[C@H](Cc1c[nH]c2ccccc12)NC(=O)CNC(=O)[C@H](Cc1ccc(O)cc1)NC(=O)[C@H](C)NC(=O)[C@@H](CCC(=O)O)NC(=O)[C@@H](CCC(=O)O)NC(=O)[C@@H](CCC(=O)O)NC(=O)[C@@H](CCC(=O)O)NC(=O)[C@@H](CCC(=O)O)NC(=O)[C@@H](CCC(=O)O)NC(=O)[C@@H](CCC(=O)O)NC(=O)[C@@H](CCC(=O)O)NC(=O)[C@@H](CNC(=O)c1ccc([Si](F)(C(C)(C)C)C(C)(C)C)cc1)NC(=O)CC[C@H](C(=O)O)N1CCN(CC(=O)O)CCN(CC(=O)O)CCN(CC(=O)O)CC1)C(=O)N[C@@H](CC(=O)O)C(=O)N[C@@H](Cc1ccccc1)C(N)=O` [[nat/177Lu]Lu-(R)-DOTAGA-rhCCK-9, metal not drawn] (X1-[dDap](Benzoyl(4-SiFtBu2))[dE][dE][dE][dE][dE][dE][dE][dE]AYGW[Nle]DF-NH2), the logD in series [1] (setting [3]) was -2.84 ± 0.04. Also, the tissue uptake at 24 h in series [2] (setting [4]) was 6.4 ± 1.48 %ID/g; in series [2] (setting [5]) it was 0.45 ± 0.3 %ID/g; in series [2] (setting [6]), 0.02 %ID/g; in series [2] (setting [7]), 0.82 ± 0.42 %ID/g; in series [2] (setting [8]), 0.09 ± 0.03 %ID/g; in series [2] (setting [9]) it was 0.26 ± 0.04 %ID/g. The tissue uptake at 24 h in series [2] (setting [10]) came to 84.4 ± 22.7 %ID/g; in series [2] (setting [11]), 1.07 ± 0.54 %ID/g; in series [2] (setting [12]), 0.1 ± 0.05 %ID/g; in series [2] (setting [13]), 0.03 ± 0.01 %ID/g; in series [2] (setting [14]) it was 0.31 ± 0.2 %ID/g; in series [2] (setting [15]), 0.7 ± 0.69 %ID/g. Besides, in series [2] (setting [16]), the tissue uptake at 24 h was found to be 1.8 ± 0.37 %ID/g.
The compound `CSCC[C@H](NC(=O)[C@H](Cc1c[nH]c2ccccc12)NC(=O)CNC(=O)[C@H](Cc1ccc(O)cc1)NC(=O)[C@H](C)NC(=O)[C@@H](CCC(=O)O)NC(=O)[C@@H](CCC(=O)O)NC(=O)[C@@H](CCC(=O)O)NC(=O)[C@@H](CCC(=O)O)NC(=O)[C@@H](CCC(=O)O)NC(=O)[C@@H](CCC(=O)O)NC(=O)CN1CCN(CC(=O)O)CCN(CC(=O)O)CCN(CC(=O)O)CC1)C(=O)N[C@@H](CC(=O)O)C(=O)N[C@@H](Cc1ccccc1)C(N)=O` [[nat/177Lu]Lu-CP04, metal not drawn, reference compound] returned a logD in series [1] (pH 7.4) of -3.8 ± 0.1.
`CCCC[C@H](NC(=O)[C@H](Cc1c[nH]c2ccccc12)NC(=O)CNC(=O)[C@H](Cc1ccc(O)cc1)NC(=O)[C@H](C)NC(=O)[C@@H](CCC(=O)O)NC(=O)[C@@H](CCC(=O)O)NC(=O)[C@@H](CCC(=O)O)NC(=O)[C@@H](CCC(=O)O)NC(=O)[C@@H](CCC(=O)O)NC(=O)[C@@H](CCC(=O)O)NC(=O)CN1CCN(CC(=O)O)CCN(CC(=O)O)CCN(CC(=O)O)CC1)C(=O)N[C@@H](CC(=O)O)C(=O)N[C@@H](Cc1ccccc1)C(N)=O` [[nat/177Lu]Lu-DOTA-PP-F11N, metal not drawn, reference compound]: the logD in series [1] (setting [3]) was -4.75 ± 0.07. Besides, the tissue uptake at 24 h in series [2] (setting [4]) worked out at 1.88 ± 0.82 %ID/g; in series [2] (setting [5]), 0.03 ± 0.03 %ID/g; in series [2] (setting [7]), 0.03 ± 0.01 %ID/g; in series [2] (setting [9]), 0.04 ± 0.02 %ID/g; in series [2] (setting [10]), 3.08 ± 0.51 %ID/g; in series [2] (setting [11]), 0.67 ± 0.64 %ID/g. Moreover, the tissue uptake at 24 h in series [2] (setting [14]) was found to be 0.05 ± 0.01 %ID/g; in series [2] (setting [15]), 0.07 ± 0.03 %ID/g; in series [2] (setting [16]) it was 0.36 ± 0.05 %ID/g.
For `CCCC[C@H](NC(=O)[C@H](Cc1c[nH]c2ccccc12)NC(=O)CNC(=O)[C@H](Cc1ccc(O)cc1)NC(=O)[C@H](C)NC(=O)CC[C@@H](NC(=O)CC[C@@H](NC(=O)CC[C@@H](NC(=O)CC[C@@H](NC(=O)CC[C@@H](NC(=O)CC[C@@H](NC(=O)[C@@H](CNC(=O)c1ccc([Si](F)(C(C)(C)C)C(C)(C)C)cc1)NC(=O)CC[C@H](C(=O)O)N1CCN(CC(=O)O)CCN(CC(=O)O)CCN(CC(=O)O)CC1)C(=O)O)C(=O)O)C(=O)O)C(=O)O)C(=O)O)C(=O)O)C(=O)N[C@@H](CC(=O)O)C(=O)N[C@@H](Cc1ccccc1)C(N)=O` [[nat/177Lu]Lu-(R)-DOTAGA-rhCCK-16, metal not drawn], in series [1] (setting [3]), the logD is -2.54 ± 0.05. The tissue uptake at 24 h in series [2] (setting [4]) amounted to 15.7 ± 3.3 %ID/g; in series [2] (setting [5]), 1.49 ± 1.5 %ID/g; in series [2] (setting [6]) it was 0.01 %ID/g; in series [2] (setting [7]), 0.17 ± 0.02 %ID/g; in series [2] (setting [8]) it was 0.11 ± 0.01 %ID/g; in series [2] (setting [9]), 0.2 ± 0.04 %ID/g. The tissue uptake at 24 h in series [2] (setting [10]) was 85.5 ± 11.3 %ID/g; in series [2] (setting [11]) it was 1.18 ± 0.27 %ID/g; in series [2] (setting [12]), 0.09 ± 0.02 %ID/g; in series [2] (setting [13]), 0.05 ± 0.01 %ID/g; in series [2] (setting [14]) it was 0.39 ± 0.12 %ID/g; in series [2] (setting [15]) it was 0.62 ± 0.03 %ID/g. Also, the tissue uptake at 24 h in series [2] (setting [16]) was found to be 3.51 ± 0.5 %ID/g.

Values taken from publication PMC9783573, “Introduction of a SiFA Moiety into the D-Glutamate Chain of DOTA-PP-F11N Results in Radiohybrid-Based CCK-2R-Targeted Compounds with Improved Pharmacokinetics In Vivo” (Pharmaceuticals, 2022).
